Measurements: US20240189263A1, “DERIVATIZED C60 MOLECULES AND METHODS AND MATERIALS FOR USING DERIVATIZED C60 MOLECULES TO REDUCE RADIATION INJURY” (Mayo Foundation for Medical Education and Research, priority 2021, published 2024)

Legend:
HepG2 cells = experiment: Classic clonogenics survival assay of irradiated cells, HepG2; assay type: cell-based
Procedure: A classic clonogenics assay was performed to further test the ability of C60-ser to protect against radiation damage. After irradiation, a fraction of the cells will undergo radiation-induced death, whereas other cells remain metabolically active and are able to undergo a few cycles of mitosis before meeting their endpoint. Since many cells remain metabolically activity, classic toxicity measurements such as an MTT measurement are not able to catch the full effects of radiation damage. In contrast, a classic clonogenics assay, which plates a known number of cells and tracks development of colonies, is able to track the number of cells that maintain their clonogenicity. With increasing radiation doses, the fraction of cells that maintain clonogenicity decrease. Therefore, a successful radioprotectant is able to increase the number of surviving colonies compared to the control at the same radiation doses.
N2A, NIH3T3, and HepG2 cells were plated in 35 mm dishes and treated with 100 μM C60-ser for 2 hours prior to washing with PBS and irradiation at 0, 2, 4, and 6 Gy with a 230 MeV proton beam. Following radiation, a known number of cells were re-plated in six well plates and allowed to grow in culture for 8-14 days to allow for colony formation. To account for cell death with higher radiation doses, a larger number of cells were plated with increasing doses received. […]

N2A cells [1] = experiment: Seahorse mitochondrial respiration (oxygen consumption rate), N2A; assay type: cell-based; conditions: pretreated 2 hours before 1 Gy 230 MeV proton
Procedure: (§1) The oxygen consumption rates were assessed in N2A, HUVEC, NIH3T3, and HepG2 cell lines with a Seahorse XFe96 (Agilent Technologies, Santa Clara, CA, USA). Cells were treated with 0 and 1 Gy of 230 MeV proton irradiation. The control plates were run at about the same time post plating. Each cell line was optimized prior to these experiments, and data was presented normalized to cell number plated. The standard mitochondrial stress test was performed using serial injections of oligomycin (1.5 μM), carbonyl cyanide p-(trifluoromethoxy)phenylhydrazone (FCCP, 1 μM), and rotenone/antimycin A mixture (0.5 μM). After injection of oligomycin, which inhibits ATP synthase (complex V), there was a drop in electron flow through the electron transport chain (ETC) and a resultant drop in oxygen consumption rate (OCR) of the cells. Injection of FCCP collapsed the proton gradient and allowed for uninhibited electron flow through the ETC supercomplexes. […] The reserve respiratory capacity was calculated by subtracting the basal respiratory capacity from the maximal respiratory capacity.

N2A cells [2] = experiment: MTS cytotoxicity assay, N2A; assay type: cell-based; conditions: 1-1000 μM, 24, 48 or 72 hours
Procedure: (§2) Cytotoxicity of C60-ser was determined by an MTS (3-(4,5-dimethylthiazol-2-yl)-5-(3-carboxymethoxyphenyl)-2-(4-sulfophenyl)-2H-tetrazolim) colorimetric assay on four different cell lines, each representing a different cell type. Specifically, HepG2 (liver epithelium), HUVEC (endothelial cells), N2A (neuroblastoma cells representative of normal neurons), and NIH3T3 (fibroblasts) were analyzed. The cells were seed in a 96-well tissue culture polystyrene plate at different seeding concentrations based on the cell's doubling time. HUVEC cells were seeded at 10,000 cells/well (24 hour experiments), 8,000 cells/well (48 hour experiments), and 5,000 cells/well (72 hour experiments), and incubated for 24 hours in a humidified atmosphere with 5% C02 at 37° C. […] After incubation with MTS, the optical density (OD) of the resulting formazan solution was read at 490 nm using a microplate reader (Biotek Cytation 5 cell Imaging Multi-Mode reader, Winooski, VT). The cell viability was obtained by normalizing the absorbance of the sample with that of the control wells containing untreated cells. The cell viability was expressed as a percentage, assigning the viability of non-treated cells as 100%. […]

[3] = Zeta-potential of C60-ser aggregates; assay type: physicochemical; conditions: 0.1 mg/mL and 10 mg/mL in deionized water
Procedure: Analysis was performed using a ZEN 3600 Malvern Zetasizer (Worcestershire, UK) equipped with a 633 nm laser. The electrophoretic mobilities (p) of the aggregates was measured by applying an electric field to the C60-ser solution and measuring the speed and direction of the aggregate's motion. Zeta-potentials were calculated using the solvent viscosity (n) and the water dielectric constant (e). To perform the measurements, C60-ser molecules were dissolved in deionized water, and the solution electrical conductivity was adjusted to 25-50 μS/cm by addition of small amounts of neutral 2-(N-morpholino)ethanesulfonic acid (MES) buffer. The zeta-potential of C60-ser aggregates was measured at a concentration of 0.1 mg/mL in deionized water (FIG. 5A) and 10 mg/mL in deionized water (FIG. 5B).

HUVEC cells = experiment: MTS cytotoxicity assay, HUVEC; assay type: cell-based; conditions: 1-1000 μM, 24, 48 or 72 hours
Procedure: as §2

C57B16 mice = experiment: Whole body radiation protection, survival; assay type: in vivo
NIH3T3 cells [4] = experiment: MTS cytotoxicity assay, NIH3T3; assay type: cell-based
Procedure: as §2

NIH3T3 cells [5] = experiment: Seahorse mitochondrial respiration (oxygen consumption rate), NIH3T3; assay type: cell-based; conditions: NIH3T3, pretreated 2 hours before 1 Gy 230 MeV proton
Procedure: as §1

With `O=C(NC(CO)CO)C1(C(=O)NC(CO)CO)C23c4c5c6c7c8c4-c4c2c2c9c%10c4C4%11c%12c-%10c%10c%13c%14c%12-c%12c(c-7c7c%15c%12C%14%12C(C(=O)NC(CO)CO)(C(=O)NC(CO)CO)C%12%14c%12c%16c%17c%18c(c%12-%15)C7%12C(C(=O)NC(CO)CO)(C(=O)NC(CO)CO)C6%12c6c-5c5c7c(c6-%18)C%176C(C(=O)NC(CO)CO)(C(=O)NC(CO)CO)C6%12c6c-7c(c-2c2c6-c6c%12c-%16c%14c-%13c6C%106C(C(=O)NC(CO)CO)(C(=O)NC(CO)CO)C926)C513)C84C%11(C(=O)NC(CO)CO)C(=O)NC(CO)CO` (stereo not drawn) [C60-ser, C60-serinol] as the compound, how does the “fraction of surviving cells” value (HepG2 cells; HepG2, 100 μM 2 hours before irradiation) read?
Its value is “increased the fraction of surviving cells”.

What about the “dose enhancement factor (DEF) at 20% surviving fraction” value (HepG2 cells; HepG2, 100 μM 2 hours, 0-6 Gy 230 MeV proton) of the same compound?
The value was 0.88±0.01.

And the “radiation-induced increase in respiratory capacity” value (N2A cells [1])?
The value was “dampened and, in some cases, reduced to normal or slightly below normal levels”.

What about the percent viability (N2A cells [2]) of the same compound?
Its percent viability is “did not result in a significant decrease in viability”.

And the zeta-potentials of aggregates [3]?
The zeta-potentials of aggregates was “close to zero”.

And the percent viability (HUVEC cells)?
The percent viability was “did not result in a significant decrease in viability”.

And the “protection from whole body x-ray radiation-induced death” value (C57B16 mice; given systemically 12 hours after radiation)?
The value was “protected mice from whole body x-ray radiation-induced death”.

What about the “survival over 45 day study” value (C57B16 mice; per os 700 mg/kg 12 hours before 9.5 Gy whole-body x-ray, then 70 mg/kg daily for eight days) of the same compound?
The value was 100%.

What about the “survival over 45 day study” value (C57B16 mice; per os 700 mg/kg once 12 hours before 9.5 Gy whole-body x-ray) of the same compound?
The value was 100%.

And the “percent viability at the highest dose” value (NIH3T3 cells [4]; NIH3T3, 1000 μM)?
Its value is “downward trend”.

And the percent viability (NIH3T3 cells [4]; NIH3T3, 1-1000 μM, 24, 48 or 72 hours)?
Its percent viability is “did not result in a significant decrease in viability”.

What about the “radiation-induced increase in respiratory capacity” value (NIH3T3 cells [5]) of the same compound?
The value was “dampened and, in some cases, reduced to normal or slightly below normal levels”.
